Counter-ions that a name gives are not always drawn. Like-named read-outs stand apart in the source and are kept apart here.

The experiment addresses T1, σ1-receptor (Cavia porcellus, UniProt Q60492).
T1 construct: guinea pig brains were homogenized; from tissue; host or cells: guinea pig brain membranes
The experiment is described as follows: Sigma-1 receptor binding assay, [3H](+)-pentazocine displacement in guinea pig brain membranes. Particulars: for inhibition at 0.01 µM: read-out: Sigma-1 Inhibition percent (0.01 μM); for inhibition at 0.1 µM: read-out: Sigma-1 Inhibition percent (0.1 μM). Here is the method: The following protocol was followed:
In brief, guinea pig brains were homogenized in 10 vols. (w/v) of Tris-HCl 50 mM 0.32 M sucrose, pH 7.4, with a Kinematica Polytron PT 3000 at 15000 r.p.m. for 30 s. The homogenate was centrifuged at 1000 g for 10 min at 4° C. and the supernatants collected and centrifuged again at 48000 g for 15 min at 4° C. The pellet was resuspended in 10 volumes of Tris-HCl buffer (50 mM, pH 7.4), incubated at 37° C. for 30 min, and centrifuged at 48000 g for 20 min at 4° C. Following this, the pellet was resuspended in fresh Tris-HCl buffer (50 mM, pH 7.4) and stored on ice until use.
Each assay tube contained 10 μL of [^3H](+)-pentazocine (final concentration of 0.5 nM), 900 μL of the tissue suspension to a final assay volume of 1 mL and a final tissue concentration of approximately 30 mg tissue net weight/mL. Non-specific binding was defined by addition of a final concentration of 1 μM haloperidol. […] Filters were then washed with four times with 4 mL of cold Tris-HCl buffer (50 mM, pH 7.4). Following addition of scintillation cocktail, the samples were allowed to equilibrate overnight.

The mark [1] stands for this setting: compound at 0.01 μM, [3H](+)-pentazocine 0.5 nM, guinea pig brain membranes.
Where [2] appears, read: compound at 0.1 μM, [3H](+)-pentazocine 0.5 nM, guinea pig brain membranes.
The mark [3] stands for this setting: [3H](+)-pentazocine 0.5 nM, guinea pig brain membranes, read-out: Sigma-1 Ki (nm) Displ. 10^−7 M (10^−8 M).

T1 sequence (Q60492 whole entry): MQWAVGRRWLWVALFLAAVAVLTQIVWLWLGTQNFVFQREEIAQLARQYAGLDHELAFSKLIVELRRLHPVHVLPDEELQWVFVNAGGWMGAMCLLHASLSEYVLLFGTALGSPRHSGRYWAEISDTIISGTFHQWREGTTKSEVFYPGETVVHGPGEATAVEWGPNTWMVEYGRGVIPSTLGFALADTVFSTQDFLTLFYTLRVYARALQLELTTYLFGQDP

What is called Ki is the dissociation constant of the complex between target and ligand, obtained from inhibition or displacement. What is called inhibition is the drop in the measured response relative to a control, in per cent. Consider `Cc1nc(SCCN(C(C)C)C(C)C)nn1-c1ccc(Cl)c(Cl)c1` [compound 4, oxalate], for which the Ki is 1.1 nM, the inhibition at 0.01 µM was 105% and the inhibition at 0.1 µM turned out to be 109%.

For the compound `Cc1nc(SCCCCN2CCOCC2)nn1-c1ccc(Cl)c(Cl)c1` [compound 11, 4-[4-(1-(3,4-dichlorophenyl)-5-methyl-1H-1,2,4-triazol-3-yl-thio)butyl]morpholine oxalate], the inhibition at 0.01 µM under setting [1] is 14.5%. The inhibition at 0.1 µM under setting [2] came to 66.9%.

On to `Cc1nc(SCCN2CCCCCC2)nn1-c1ccc(Cl)c(Cl)c1` [compound 6, 1-[2-(1-(3,4-dichlorophenyl)-5-methyl-1H-1,2,4-triazol-3-yl-thio)ethyl]azepane oxalate], for which the inhibition at 0.01 µM under setting [1] came out at 90.6%. Moreover, the inhibition at 0.1 µM under setting [2] was 99.2%.

For the compound `Cc1nc(OCCN2CCCC2)nn1-c1ccc(Cl)c(Cl)c1` [compound 24, 1-[2-(1-(3,4-Dichlorophenyl)-5-methyl-1H-1,2,4-triazol-3-yloxy)ethyl]pyrrolidine], the inhibition at 0.01 µM under setting [1] was found to be 39.5%. Further, the inhibition at 0.1 µM under setting [2] turned out to be 91.8%.

For the compound `Cc1nc(OCCN2CCOCC2)nn1-c1ccccc1` [compound 28, 4-[2-(5-methyl-1-phenyl-1H-1,2,4-triazol-3-yloxy)ethyl]morpholine], the inhibition at 0.01 µM under setting [1] was -20.9%. Further, under setting [2], the inhibition at 0.1 µM was -3.4%.

Turning to `CCN(CC)CCOc1nc(C)n(-c2ccccc2)n1` [compound 26, 2-(5-methyl-1-phenyl-1H-1,2,4-triazol-3-yloxy)-N,N-diethyl ethanamine], the inhibition at 0.01 µM under setting [1] stood at 7.3%. For the same compound, the inhibition at 0.1 µM under setting [2] was 15.2%.

Regarding `Cc1nc([S+]([O-])CCCCN2CCC(c3ccccc3)CC2)nn1-c1ccc(Cl)c(Cl)c1` (stereo not shown) [compound 18, 1-[4-(1-(3,4-Dichlorophenyl)-5-methyl-1H-1,2,4-triazol-3-ylsulfinyl)butyl]-4-phenylpiperidine], the inhibition at 0.01 µM under setting [1] is -39.5%. Besides, the inhibition at 0.1 µM under setting [2] came out at 37.2%.

Turning to `Cc1nc(SCCN2CCCC2)nn1-c1ccc(Cl)c(Cl)c1` [compound 3, oxalate], under setting [3], the Ki was 1.4 nM. Under setting [1], the inhibition at 0.01 µM is 103%. In addition, the inhibition at 0.1 µM under setting [2] was found to be 106%.

For the compound `Cc1nc(SCCCN2CCC(c3ccccc3)CC2)nn1-c1ccc(Cl)c(Cl)c1` [compound 9, 1-[3-(1-(3,4-dichlorophenyl)-5-methyl-1H-1,2,4-triazol-3-ylthio)propyl]-4-phenylpiperidine oxalate], the Ki under setting [3] worked out at 9 nM. For the same compound, under setting [1], the inhibition at 0.01 µM was determined as 74.2%. Moreover, the inhibition at 0.1 µM under setting [2] is 89%.

In the case of `Cc1nc([S+]([O-])CCN(C(C)C)C(C)C)nn1-c1ccc(Cl)c(Cl)c1` (stereo not shown) [compound 17], the affinity, expressed as Ki, was 4 nM; the inhibition at 0.01 µM is 62.3%; the inhibition at 0.1 µM was found to be 93.9%.

`Cc1nc(S(=O)(=O)CCN2CCCC2)nn1-c1ccc(Cl)c(Cl)c1` [compound 19]: the Ki under setting [3] stood at 2.2 nM. Besides, the inhibition at 0.01 µM under setting [1] was 71.8%. The inhibition at 0.1 µM under setting [2] was determined as 96.4%.

In the case of `CCN(CC)CCS(=O)(=O)c1nc(C)n(-c2ccc(Cl)c(Cl)c2)n1` [compound 20, 2-[1-(3,4-Dichlorophenyl)-5-methyl-1H-1,2,4-triazol-3-ylsulfonyl]-N,N-diethylethanamine], the Ki under setting [3] was determined as 16.7 nM. The inhibition at 0.01 µM under setting [1] turned out to be 51.2%. In addition, the inhibition at 0.1 µM under setting [2] turned out to be 82.1%.

As to `Cc1nc([S+]([O-])CCN2CCCC2)nn1-c1ccc(Cl)c(Cl)c1` (stereo not shown) [compound 15, 1-[2-(1-(3,4-dichlorophenyl)-5-methyl-1H-1,2,4-triazol-3-yl-sulfinyl)ethyl]pyrrolidine], the Ki under setting [3] turned out to be 7 nM. Further, the inhibition at 0.01 µM under setting [1] came to 47.2%. Moreover, the inhibition at 0.1 µM under setting [2] is 88.9%.

For `Cc1nc(SCCCCCN2CCCC2)nn1-c1ccc(Cl)c(Cl)c1` [compound 14, 1-[5-(1-(3,4-dichlorophenyl)-5-methyl-1H-1,2,4-triazol-3-ylthio)pentyl]pyrrolidine oxalate], the inhibition at 0.01 µM under setting [1] came to 6%. For the same compound, the inhibition at 0.1 µM under setting [2] is 52.5%.

In the case of `Cc1nc(SCCN2CCOCC2)nn1-c1ccc(Cl)c(Cl)c1` [compound 1, oxalate], under setting [3], the Ki is 1.1 nM. The inhibition at 0.01 µM under setting [1] is 102%. Further, the inhibition at 0.1 µM under setting [2] was found to be 107%.

For the compound `Cc1nc(OCCN2CCCCC2)nn1-c1ccc(Cl)c(Cl)c1` [compound 22], the Ki under setting [3] is 3.1 ± 1.6 nM. Also, the inhibition at 0.01 µM under setting [1] came out at 54.3%. The inhibition at 0.1 µM under setting [2] is 94.8%.

In the case of `Cc1nc(OCCCCN2CCOCC2)nn1-c1ccccc1` [compound 30, 4-[4-(5-methyl-1-phenyl-1H-1,2,4-triazol-3-yloxy)butyl]morpholine], the inhibition at 0.01 µM under setting [1] is -15.1%. Besides, under setting [2], the inhibition at 0.1 µM was determined as 18.3%.

Consider `Cc1nc(OCCN2CCCCC2)nn1-c1ccccc1` [compound 29, 1-[2-(5-methyl-1-phenyl-1H-1,2,4-triazol-3-yloxy)ethyl]piperidine], for which the inhibition at 0.01 µM under setting [1] turned out to be 5.8%. Besides, the inhibition at 0.1 µM under setting [2] worked out at 46.1%.

For `Cc1nc(OCCN2CCOCC2)nn1-c1ccc(Cl)c(Cl)c1` [compound 25, 4-[2-(1-(3,4-Dichlorophenyl)-5-methyl-1H-1,2,4-triazol-3-yloxy)ethyl]morpholine oxalate], the inhibition at 0.01 µM under setting [1] was 33.8%. Moreover, under setting [2], the inhibition at 0.1 µM came out at 83.8%.

As to `CCN(CC)CCSc1nc(C)n(-c2ccc(Cl)c(Cl)c2)n1` [compound 5, 2-(1-(3,4-dichlorophenyl)-5-methyl-1H-1,2,4-triazole-3-yl-thio]-N,N-diethyl ethanamine oxalate], the Ki under setting [3] worked out at 1.1 nM. For the same compound, the inhibition at 0.01 µM under setting [1] was found to be 104%. Further, the inhibition at 0.1 µM under setting [2] came to 109%.

As to `Cc1nc(SCCN2CCCCC2)nn1-c1ccc(Cl)c(Cl)c1` [compound 2, 1-[2-(3,4-dichlorophenyl)-5-methyl-1H-1.2.4-triazole-3-yl-thioethyl]piperidine oxalate], the Ki under setting [3] worked out at 0.8 nM. Also, the inhibition at 0.01 µM under setting [1] was found to be 105%. The inhibition at 0.1 µM under setting [2] is 109%.

As to `CCN(CC)CCOc1nc(C)n(-c2ccc(Cl)c(Cl)c2)n1` [compound 23, 2-[1-(3,4-Dichlorophenyl)-5-methyl-1H-1,2,4-triazol-3-yloxy]-N,N-diethylethanamine], the inhibition at 0.01 µM under setting [1] turned out to be 32.2%. The inhibition at 0.1 µM under setting [2] came out at 85%.

Regarding `Cc1nc(SCCCCN2CCC(c3ccccc3)CC2)nn1-c1ccc(Cl)c(Cl)c1` [compound 10, 1-[4-(1-(3,4-dichlorophenyl)-5-methyl-1H-1,2,4-triazol-3-yl-thio)butyl]-4-phenylpiperidine oxalate], the inhibition at 0.01 µM under setting [1] amounted to 27.3%. Moreover, the inhibition at 0.1 µM under setting [2] amounted to 88.1%.

As to `Cc1nc(SCCCN2CCOCC2)nn1-c1ccc(Cl)c(Cl)c1` [compound 7, 4-[3-(1-(3,4-Dichlorophenyl)-5-methyl-1H-1,2,4-triazol-3-ylthio)propyl]morpholine oxalate], the inhibition constant Ki under setting [3] was 8.2 nM. Besides, the inhibition at 0.01 µM under setting [1] is 67.8%. Also, the inhibition at 0.1 µM under setting [2] is 85.5%.

On to `Cc1nc(SCCCCCN2CCOCC2)nn1-c1ccc(Cl)c(Cl)c1` [compound 13, 4-[5-(1-(3,4-Dichlorophenyl)-5-methyl-1H-1,2,4-triazol-3-ylthio)pentyl]morpholine oxalate], for which the inhibition at 0.01 µM under setting [1] was found to be 4.3%. Moreover, the inhibition at 0.1 µM under setting [2] is 58.2%.

Turning to `Cc1nc(S(=O)(=O)CCCCN2CCOCC2)nn1-c1ccc(Cl)c(Cl)c1` [compound 21, 4-[4-(1-(3,4-Dichlorophenyl)-5-methyl-1H-1,2,4-triazol-3-yl-sulfonyl)-butyl]morpholine], the inhibition at 0.01 µM under setting [1] was determined as 8.3%. Also, under setting [2], the inhibition at 0.1 µM was 20.5%.

In the case of `Cc1nc([S+]([O-])CCN2CCOCC2)nn1-c1ccc(Cl)c(Cl)c1` (stereo not shown) [compound 16, 4-[2-(1-(3,4-dichlorophenyl)-5-methyl-1H-1,2,4-triazol-3-yl-sulfinyl)-ethyl]-morpholine], the inhibition at 0.01 µM under setting [1] was determined as 28.6%. Further, the inhibition at 0.1 µM under setting [2] stood at 42%.

In the case of `Cc1nc(SCCCN2CCCC2)nn1-c1ccc(Cl)c(Cl)c1` [compound 8, 1-[3-(1-(3,4-dichlorophenyl)-5-methyl-1H-1,2,4-triazol-3-yl-thio)propyl]-4-pyrrolidine oxalate], the Ki under setting [3] was 2.1 nM. Besides, under setting [1], the inhibition at 0.01 µM was 57.4%. For the same compound, the inhibition at 0.1 µM under setting [2] came to 82.5%.

Regarding `Cc1nc(SCCCCCN2CCCCC2)nn1-c1ccc(Cl)c(Cl)c1` [compound 12, 1-[5-(1-(3,4-dichlorophenyl)-5-methyl-1H-1,2,4-triazol-3-ylthio)pentyl]piperidine oxalate], the inhibition at 0.01 µM under setting [1] came to 52.1%. In addition, the inhibition at 0.1 µM under setting [2] turned out to be 82.8%.

As for `Cc1nc(OCCN2CCCC2)nn1-c1ccccc1` [compound 27, 1-[2-(5-methyl-1-phenyl-1H-1,2,4-triazol-3-yloxy)ethyl]pyrrolidine], under setting [1], the inhibition at 0.01 µM stood at 8.1%. Moreover, the inhibition at 0.1 µM under setting [2] amounted to 30.4%.

Values taken from patent US8349878B2 (Laboratorios del Dr. Esteve, S.A., priority 2006, dated 2013).
